The values that follow come from publication PMC8083904 (ACS infectious diseases, 2020).

The structures appear in SMILES notation.

The target of test [1] is T1, MEZ (Mtb malic enzyme) (Mycobacterium tuberculosis, UniProt P9WK25). The note with it: read-out: Km or K0.5.
In test [2] the target is T1, MEZ (Mtb malic enzyme).
The target of test [3] is T1, MEZ (Mtb malic enzyme). This is another data set of the same source.

T1 sequence (P9WK25 whole entry): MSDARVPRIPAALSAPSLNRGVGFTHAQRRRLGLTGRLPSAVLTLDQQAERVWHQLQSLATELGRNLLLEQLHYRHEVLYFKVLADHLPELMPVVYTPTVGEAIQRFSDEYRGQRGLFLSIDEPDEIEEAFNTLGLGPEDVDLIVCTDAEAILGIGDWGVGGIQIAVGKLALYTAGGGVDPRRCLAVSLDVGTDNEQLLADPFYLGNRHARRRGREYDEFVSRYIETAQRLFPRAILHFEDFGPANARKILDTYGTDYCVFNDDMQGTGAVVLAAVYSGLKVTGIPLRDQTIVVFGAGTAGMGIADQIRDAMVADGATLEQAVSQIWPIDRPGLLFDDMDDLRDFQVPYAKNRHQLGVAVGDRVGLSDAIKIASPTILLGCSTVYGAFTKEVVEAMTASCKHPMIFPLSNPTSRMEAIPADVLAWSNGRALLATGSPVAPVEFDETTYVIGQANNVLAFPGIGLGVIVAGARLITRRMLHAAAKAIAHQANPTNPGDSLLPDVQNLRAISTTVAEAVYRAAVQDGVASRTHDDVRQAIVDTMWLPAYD

In the case of `O=C(O)C[C@H](O)C(=O)O` [L-malate], the Km on MEZ (Mtb malic enzyme) [1] is 18.7 ± 0.5 mM. Consider `N[C@@H](CC(=O)O)C(=O)O` [aspartate], for which the “% activity of unmodified control (activation)” value (from here on “% activity … (activation)”) at MEZ (Mtb malic enzyme) [2] is listed as “aspartate induced a smaller increase in activity, Figure 3A”. As for `O=C(O)/C=C/C(=O)O` [fumarate], the “% activity … (activation)” value on MEZ (Mtb malic enzyme) [2] was 361%.

On to `O=C(O)CC(=O)C(=O)O` [oxaloacetate], for which the “% activity of control (inhibition)” value on MEZ (Mtb malic enzyme) [3] amounted to 61%. Take `O=C(O)CCC(=O)O` [succinate]: the “% activity … (activation)” value on MEZ (Mtb malic enzyme) [2] worked out at 290%.

For orientation: Km means the concentration of substrate that gives half-maximal velocity.
